Measured values reported in US9970938B2, “Use of BUBR1 as a biomarker of drug response to furazanobenzimidazoles” (Basilea Pharmaceutica AG, priority 2011, dated 2018).

Key:
Assay type in all cases: cell-based, human
[1] = test system: GXF97; test: Colony outgrowth assay, patient-derived tumour xenograft cells; set-up: key: S: BAL27862-sensitive tumour cells have IC70 values in the low nanomolar range; R: BAL27862-resistant tumour cells are defined by IC70 values >600 nanomolar; details: Gastric
Description: (§1) Single cell suspensions of patient-derived tumour xenografts (maintained in nude mice) were prepared. For colony outgrowth assays, cells were plated in soft agar in 24-well plates according to the assay introduced by Hamburger & Salmon (Primary bioassay of human tumour stem cells, Science, 1977, 197:461-463). 2.0E+04-6.0E+04 cells in 0.2 mL medium containing 0.4% agar were plated out on a bottom layer of 0.75% agar. Test compounds were applied in 0.2 mL culture medium. Every 24-well plate contained untreated controls and samples in triplicates. Cultures were incubated at 37° C. and 7.5% CO2 for 5-28 days. 24 hours prior to analysis, vital colonies were stained with a solution of metabolizable tetrazolium salt (Alley M C et al, Life Sci. 1982, 31:3071-3078) and were counted with an automatic image analysis system (Omnicon 3600, Biosys GmbH).
(§2) Relative drug effects were expressed by the ratio of the mean number of colonies in the treated wells and the control wells. IC70-values were determined by plotting compound concentrations versus relative colony counts.

[2] = test system: LXFL529; test: as above; set-up: key: S: BAL27862-sensitive tumour cells have IC70 values in the low nanomolar range; R: BAL27862-resistant tumour cells are defined by IC70 values >600 nanomolar; details: Lung
Description: as §1, §2

[3] = test system: GXF251; test: as above; set-up: key: S: BAL27862-sensitive tumour cells have IC70 values in the low nanomolar range; R: BAL27862-resistant tumour cells are defined by IC70 values >600 nanomolar; details: Gastric
Description: as §1, §2

[4] = test system: LXFA629; test: as above; set-up: key: S: BAL27862-sensitive tumour cells have IC70 values in the low nanomolar range; R: BAL27862-resistant tumour cells are defined by IC70 values >600 nanomolar; details: Lung
Description: as §1, §2

[5] = test system: A549 NSCLC cells; test: Immunofluorescent staining of microtubules in cultured cells
Description: (§3) A549 human non-small cell lung cancer (NSCLC, ATCC reference number CCL-185) cells, HeLa cervical cancer cells (ATCC reference number CCL-2) and SKBR3 breast carcinoma cells (ATCC reference number HTB-30) were seeded at densities of 50% on round microscope coverslips and cultured for 24 hours in RPMI-1640 containing 10% FCS (also referred to as FBS) at 37° C., 5% CO2. Compounds to be tested were dissolved in DMSO. The cell culture medium was replaced with medium containing the diluted compound(s) (paclitaxel, vinblastine, colchicine and nocodazole were purchased from Sigma-Aldrich) or vehicle. After treatment, coverslips were washed and cells were fixed in methanol/acetone (1:1) for 5 minutes at room temperature and subsequently incubated in blocking buffer (0.5% BSA and 0.1% TX-100 in PBS) for 30 minutes at room temperature. Specimens were then incubated with anti-alpha-tubulin antibody (Sigma, 1:2000) for 1 hour at room temperature in blocking buffer. After several washing steps cells were incubated with AlexaFluor-488 goat-anti-mouse IgG (Molecular Probes, 1:3000) for 1 hour at room temperature followed by several washing steps with blocking buffer. Specimens were then mounted with ProLong Gold antifade (Molecular Probes), sealed with nail polish and examined with a Leica immunofluorescence microscope. Images were captured with a cooled CCD-camera and processed by ImageJ software.

[6] = test system: HeLa cervical cancer cells; test: as above; details: 24 hours, 50 nM
Description: as §3

[7] = test system: SKBR3 breast cancer cells; test: as above; details: 24 hours, 50 nM
Description: as §3

[8] = test system: Panc1 cells; test: Crystal Violet assay of siRNA-treated cells; details: BUBR1 siRNA pool, 30 nM, 48 hours
Description: (§4) For siRNA experiments to assess effects on BUBR1 expression levels by immunoblotting and effects on tumour cell proliferation and viability using the YO-PRO assay (FIGS. 7, 9,10 and 11), and Crystal Violet Assay (FIGS. 12 and 13), cells were seeded in 6 well plates at an appropriate density: HeLa (cervical cancer cells; ATCC reference CCL-2) 2.5E+04 (for YO-PRO) or 4.0E+04 (for Crystal Violet) cells per well, H460 (NSCLC cells; ATCC reference HTB-177) 5.0E+04 cells per well, MCF-7 (breast carcinoma cells; ATCC reference HTB-22) 2.4E+05 cells per well, Panc1 (pancreatic cancer cells, ATCC reference CRL-1469) and HCT116 (colon cancer cells, ATCC reference CCI-247) 8E+04 cells per well, and were cultured at 37° C. and 5% CO2 in RPMI-1640 or DMEM containing 10% FCS (complete medium). Cells were transfected the following day with a mixture of four BUBR1 siRNAs (ON-Target-plus Smartpool L-004101, Dharmacon, see sequence information below), the four individual BUBR1 siRNAs (ON-Target-plus Set of four upgrade LU-004101) or non-targeting control siRNAs (ON-Target-plus non-targeting pool D001810, Dharmacon), using Hiperfect (Qiagen) for H460, Panc1 and HCT116 or Lipofectamine2000 (Invitrogen) for HeLa and MCF-7 according to manufacturer's instructions. The final concentration of siRNA was 10 nM (H460) or 20-30 nM (HeLa) or 20 nM (MCF-7, Panc1, HCT116). Cells were maintained at 37° C. and 5% CO2 for 24 hours before compound treatment for 48 hours, followed by YO-PRO analysis, Crystal Violet Assay or extraction for immunoblot assay. ON-Target-plus siRNAs are dual-strand siRNAs, chemically modified to improve specificity for the desired target.
(§5) Cells were incubated for 48 hours with DMSO or BAL27862 diluted in complete medium (final concentration DMSO 0.5%). After medium was removed, cells were fixed and stained by adding 1 ml Crystal Violet Staining (0.2% Crystal Violet in 50% Methanol) per well. Plates were incubated for 1 hour at room temperature. Subsequently the stain was decanted and plates were washed 4 times with double-distilled water. Plates were air-dried for several hours. Stain was dissolved by adding 2 ml buffer (0.1 M Tris pH 7.5, 0.2% SDS, 20% Ethanol) per well and shaking the plates. Absorbance at 590 nm was measured using a SpectraMax M2^e plate reader (Molecular Devices). In order to subtract starting cell numbers, a control plate was fixed and stained on the same day the compound was added. Final results were calculated by subtracting the starting cell absorbance from that of control (DMSO) or compound treated cells. Values lower than zero indicate cell death.

[9] = test system: HCT116 cells; test: Crystal Violet assay of siRNA-treated cells; details: BUBR1 siRNA pool, 50 nM, 48 hours
Description: as §4, §5

[10] = test system: HeLa cells; test: Crystal Violet assay of siRNA-treated cells; details: 48 hours
Description: as §4, §5

## N#CCCNc1nonc1-c1nc2ccccc2n1CC(=O)c1ccc(N)cc1 [BAL27862, 3-(4-{1-[2-(4-Amino-phenyl)-2-oxo-ethyl]-1H-benzoimidazol-2-yl}-furazan-3-ylamino)-propionitrile]
[1]
  Sensitive (S)/Resistant (R), by IC70 in colony outgrowth: R (BAL27862-resistant tumour cells are defined by IC70 values >600 nanomolar)
[2]
  Sensitive (S)/Resistant (R), by IC70 in colony outgrowth: S
[3]
  Sensitive (S)/Resistant (R), by IC70 in colony outgrowth: S
[4]
  Sensitive (S)/Resistant (R), by IC70 in colony outgrowth: R (BAL27862-resistant tumour cells are defined by IC70 values >600 nanomolar)
[5]; 24 hours treatment, anti-alpha-tubulin staining
  microtubule phenotype of mitotic or G2/M arrested cells: highly reproducible and distinct microtubule phenotype
[5]; combination
  microtubule phenotype, BAL27862 added for the last 4 hours of 24 hours vinblastine, colchicine, paclitaxel or nocodazole treatment: disruption of the microtubule structures
[6]
  microtubule phenotype of mitotic or G2/M arrested cells: highly reproducible and distinct microtubule phenotype
[7]
  microtubule phenotype of mitotic or G2/M arrested cells: highly reproducible and distinct microtubule phenotype
[8]
  cellular proliferation with reduced BUBR1 expression: same effects were again observed
[9]
  cellular proliferation with reduced BUBR1 expression: same effects were again observed
[10]; BUBR1 siRNA pool, 50 nM
  cellular proliferation with reduced BUBR1 expression: same effects were again observed
[10]; siRNA #1-4, 50 nM
  effect on cellular proliferation after individual BUBR1 siRNAs: decreased the effect of BAL27862 on cellular proliferation
